Experimental data published in patent publication US7098233B2 (priority 2001, dated 2006).
Like-named read-outs stand apart in the source and are kept apart here.

How the values were obtained:
[1] = biological target: T1, rat 5-HT6 stably transfected to HEK293 (Rattus norvegicus, UniProt P31388); test: 5-HT6 receptor binding, [3H]-LSD displacement
T1 construct: expressed in transfected cells; host or cells: HEK293

[2] = biological target: T2, human 5-HT7 receptor stably transfected to CHO cells (Homo sapiens, UniProt P34969); test: 5-HT7 receptor binding, [3H]-LSD displacement
T2 construct: expressed in transfected cells; host or cells: CHO

[3] = biological target: 5-HT1b (Homo sapiens, UniProt P28222); test: Binding affinity for serotonin subtype 5-HT1b
[4] = biological target: 5-HT1d (Homo sapiens, UniProt P28221); test: Binding affinity for serotonin subtype 5-HT1d
[5] = biological target: 5-HT2b (Homo sapiens, UniProt P41595); test: Binding affinity for serotonin subtype 5-HT2b
[6] = biological target: T3, 5-HT2c (Homo sapiens, UniProt P28335); test: Binding affinity for serotonin subtype 5-HT2c
T3 sequence (P28335 33-458): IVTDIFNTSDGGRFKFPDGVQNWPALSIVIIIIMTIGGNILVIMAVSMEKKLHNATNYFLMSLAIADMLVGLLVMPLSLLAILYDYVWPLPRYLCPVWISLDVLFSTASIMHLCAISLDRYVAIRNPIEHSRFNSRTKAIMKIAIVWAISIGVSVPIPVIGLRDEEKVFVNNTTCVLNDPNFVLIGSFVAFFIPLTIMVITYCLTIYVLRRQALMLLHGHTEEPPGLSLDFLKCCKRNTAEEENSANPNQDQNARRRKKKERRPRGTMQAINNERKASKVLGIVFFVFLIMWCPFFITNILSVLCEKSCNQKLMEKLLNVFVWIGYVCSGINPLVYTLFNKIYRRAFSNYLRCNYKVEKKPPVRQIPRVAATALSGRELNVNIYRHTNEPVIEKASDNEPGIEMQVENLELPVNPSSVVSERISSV

[7] = biological target: T4, 5-HT3 (Homo sapiens, UniProt P46098); test: Binding affinity for serotonin subtype 5-HT3
T4 sequence (P46098 24-478): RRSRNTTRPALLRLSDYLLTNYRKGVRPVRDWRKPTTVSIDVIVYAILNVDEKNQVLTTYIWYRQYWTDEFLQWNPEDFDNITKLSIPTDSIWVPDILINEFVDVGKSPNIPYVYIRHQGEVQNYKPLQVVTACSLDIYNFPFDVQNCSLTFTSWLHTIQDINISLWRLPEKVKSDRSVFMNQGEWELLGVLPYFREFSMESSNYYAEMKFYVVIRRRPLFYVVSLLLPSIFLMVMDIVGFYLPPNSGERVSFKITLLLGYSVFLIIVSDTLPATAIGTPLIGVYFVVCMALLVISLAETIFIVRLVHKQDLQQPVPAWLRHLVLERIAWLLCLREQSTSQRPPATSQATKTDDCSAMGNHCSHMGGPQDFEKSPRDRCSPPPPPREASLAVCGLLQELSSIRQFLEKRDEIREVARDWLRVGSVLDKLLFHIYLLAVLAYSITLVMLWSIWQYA

[8] = biological target: 5-HT4 (Homo sapiens, UniProt Q13639); test: Binding affinity for serotonin subtype 5-HT4
[9] = biological target: 5-HT5a (Homo sapiens, UniProt P47898); test: Binding affinity for serotonin subtype 5-HT5a
[10] = biological target: 5-HT transporter (Homo sapiens, UniProt P31645); test: Binding affinity for 5-HT transporter
[11] = biological target: alpha1a adrenergic (Homo sapiens, UniProt P35348); test: Receptor panel binding: alpha1a adrenergic
[12] = biological target: beta1 adrenergic (Homo sapiens, UniProt P08588); test: Receptor panel binding: beta1 adrenergic
[13] = biological target: D1 dopaminergic (Homo sapiens, UniProt P21728); test: Receptor panel binding: D1 dopaminergic
[14] = biological target: D2 dopaminergic (Homo sapiens, UniProt P14416); test: Receptor panel binding: D2 dopaminergic
[15] = biological target: D3 dopaminergic (Homo sapiens, UniProt P35462); test: Receptor panel binding: D3 dopaminergic
[16] = biological target: D5 dopaminergic (Homo sapiens, UniProt P21918); test: Receptor panel binding: D5 dopaminergic
[17] = biological target: H1 histaminergic (Homo sapiens, UniProt P35367); test: Receptor panel binding: H1 histaminergic
[18] = biological target: V1a of vasopressin (Homo sapiens, UniProt P37288); test: Receptor panel binding: vasopressin V1a
[19] = biological target: V1b of vasopressin (Homo sapiens, UniProt P47901); test: Receptor panel binding: vasopressin V1b
[20] = biological target: V2 of vasopressin (Homo sapiens, UniProt P30518); test: Receptor panel binding: vasopressin V2
[21] = biological target: NA transporter (Homo sapiens, UniProt P23975); test: Receptor panel binding: NA transporter
[22] = biological target: DA transporter (Homo sapiens, UniProt Q01959); test: Receptor panel binding: DA transporter
[23] = biological target: T5, alpha1b adrenergic receptor (Homo sapiens, UniProt P35368); test: Receptor panel binding: alpha1b adrenergic; settings: for interaction capability for alpha1b receptors lower than for 5-HT6 receptor: alpha1b versus 5-HT6
T5 sequence (P35368 1-520): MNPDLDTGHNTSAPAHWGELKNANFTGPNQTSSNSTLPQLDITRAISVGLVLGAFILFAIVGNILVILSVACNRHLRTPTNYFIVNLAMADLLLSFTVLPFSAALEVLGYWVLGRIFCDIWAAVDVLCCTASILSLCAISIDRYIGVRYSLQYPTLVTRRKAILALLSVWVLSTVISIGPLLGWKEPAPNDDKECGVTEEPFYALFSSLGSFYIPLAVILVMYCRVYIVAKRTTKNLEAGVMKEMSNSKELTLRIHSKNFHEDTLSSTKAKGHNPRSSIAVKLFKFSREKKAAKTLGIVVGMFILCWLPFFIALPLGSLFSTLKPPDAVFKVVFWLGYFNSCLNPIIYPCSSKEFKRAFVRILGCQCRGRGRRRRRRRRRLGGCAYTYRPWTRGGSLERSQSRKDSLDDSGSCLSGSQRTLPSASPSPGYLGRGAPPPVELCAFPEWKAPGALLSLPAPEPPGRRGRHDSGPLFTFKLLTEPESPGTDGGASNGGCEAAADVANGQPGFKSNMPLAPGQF

T1 sequence (P31388 whole entry): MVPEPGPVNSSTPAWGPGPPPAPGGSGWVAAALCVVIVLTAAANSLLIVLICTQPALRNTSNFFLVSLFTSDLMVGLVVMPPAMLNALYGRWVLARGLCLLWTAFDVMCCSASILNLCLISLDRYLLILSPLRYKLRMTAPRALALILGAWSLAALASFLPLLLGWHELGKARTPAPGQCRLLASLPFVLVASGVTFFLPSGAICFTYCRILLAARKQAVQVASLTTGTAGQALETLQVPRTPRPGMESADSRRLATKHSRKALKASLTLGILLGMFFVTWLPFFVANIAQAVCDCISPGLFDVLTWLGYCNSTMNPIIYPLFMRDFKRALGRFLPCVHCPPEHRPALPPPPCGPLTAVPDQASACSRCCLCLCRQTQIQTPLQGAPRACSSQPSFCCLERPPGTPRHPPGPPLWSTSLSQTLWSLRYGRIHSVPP
T2 sequence (P34969 whole entry): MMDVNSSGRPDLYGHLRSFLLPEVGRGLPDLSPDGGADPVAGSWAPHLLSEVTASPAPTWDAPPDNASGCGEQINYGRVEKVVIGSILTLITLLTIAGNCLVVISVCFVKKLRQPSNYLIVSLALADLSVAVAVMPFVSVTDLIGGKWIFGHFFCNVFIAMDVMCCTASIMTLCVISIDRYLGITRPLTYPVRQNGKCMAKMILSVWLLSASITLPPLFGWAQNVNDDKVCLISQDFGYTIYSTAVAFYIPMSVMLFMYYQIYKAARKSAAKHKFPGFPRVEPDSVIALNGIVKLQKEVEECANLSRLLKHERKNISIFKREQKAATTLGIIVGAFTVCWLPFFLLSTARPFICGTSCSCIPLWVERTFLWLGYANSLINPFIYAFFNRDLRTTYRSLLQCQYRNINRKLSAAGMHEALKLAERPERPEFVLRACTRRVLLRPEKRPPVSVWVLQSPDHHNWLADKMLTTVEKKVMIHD
Sequence of D2 dopaminergic (P14416 whole entry): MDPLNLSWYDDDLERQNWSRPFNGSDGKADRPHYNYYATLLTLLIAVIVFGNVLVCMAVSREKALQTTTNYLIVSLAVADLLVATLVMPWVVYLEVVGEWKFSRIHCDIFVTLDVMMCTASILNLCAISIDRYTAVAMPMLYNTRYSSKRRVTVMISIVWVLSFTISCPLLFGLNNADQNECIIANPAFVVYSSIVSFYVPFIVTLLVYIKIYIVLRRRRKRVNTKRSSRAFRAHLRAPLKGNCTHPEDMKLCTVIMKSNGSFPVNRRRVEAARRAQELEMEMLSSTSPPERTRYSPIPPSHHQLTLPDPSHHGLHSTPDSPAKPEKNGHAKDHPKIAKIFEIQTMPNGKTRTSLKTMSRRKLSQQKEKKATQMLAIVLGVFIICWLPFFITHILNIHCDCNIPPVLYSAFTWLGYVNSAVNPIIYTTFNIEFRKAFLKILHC
Sequence of 5-HT1d (P28221 whole entry, species assumed): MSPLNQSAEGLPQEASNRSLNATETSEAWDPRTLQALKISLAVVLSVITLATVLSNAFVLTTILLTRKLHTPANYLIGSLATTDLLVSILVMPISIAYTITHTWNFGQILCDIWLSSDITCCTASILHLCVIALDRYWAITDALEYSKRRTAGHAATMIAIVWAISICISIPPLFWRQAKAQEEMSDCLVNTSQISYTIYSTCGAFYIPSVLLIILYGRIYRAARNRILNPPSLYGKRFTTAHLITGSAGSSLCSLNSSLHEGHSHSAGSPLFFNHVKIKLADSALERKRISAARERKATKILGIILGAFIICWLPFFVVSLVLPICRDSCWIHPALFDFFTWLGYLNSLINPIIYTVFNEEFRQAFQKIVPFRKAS
Sequence of DA transporter (Q01959 whole entry, species assumed): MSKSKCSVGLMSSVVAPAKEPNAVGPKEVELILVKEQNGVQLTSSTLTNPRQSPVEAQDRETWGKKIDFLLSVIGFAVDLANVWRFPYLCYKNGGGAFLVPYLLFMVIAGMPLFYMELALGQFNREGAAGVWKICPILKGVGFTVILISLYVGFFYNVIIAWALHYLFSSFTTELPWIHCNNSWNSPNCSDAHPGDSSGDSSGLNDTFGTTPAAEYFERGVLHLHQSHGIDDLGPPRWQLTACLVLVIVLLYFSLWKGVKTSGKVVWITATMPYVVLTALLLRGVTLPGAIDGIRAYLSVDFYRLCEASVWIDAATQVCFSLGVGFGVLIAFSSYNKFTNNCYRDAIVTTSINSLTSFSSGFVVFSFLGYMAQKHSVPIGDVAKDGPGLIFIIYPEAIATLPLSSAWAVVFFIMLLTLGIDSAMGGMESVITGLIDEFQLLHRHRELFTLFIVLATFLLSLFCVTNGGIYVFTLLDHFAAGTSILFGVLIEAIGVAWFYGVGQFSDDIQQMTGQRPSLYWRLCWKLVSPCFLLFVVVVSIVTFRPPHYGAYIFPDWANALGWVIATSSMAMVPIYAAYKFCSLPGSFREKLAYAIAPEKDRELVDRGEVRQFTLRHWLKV
Sequence of 5-HT5a (P47898 whole entry, species assumed): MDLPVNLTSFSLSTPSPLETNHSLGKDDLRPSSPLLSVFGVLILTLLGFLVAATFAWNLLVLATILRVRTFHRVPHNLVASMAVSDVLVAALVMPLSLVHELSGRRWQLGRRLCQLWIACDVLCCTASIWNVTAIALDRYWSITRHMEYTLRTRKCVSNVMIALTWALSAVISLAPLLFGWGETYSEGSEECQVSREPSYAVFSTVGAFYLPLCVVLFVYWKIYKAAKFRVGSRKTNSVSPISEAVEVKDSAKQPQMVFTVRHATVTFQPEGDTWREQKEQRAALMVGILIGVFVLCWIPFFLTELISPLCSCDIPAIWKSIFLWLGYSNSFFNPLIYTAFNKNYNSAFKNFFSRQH
Sequence of V2 of vasopressin (P30518 whole entry): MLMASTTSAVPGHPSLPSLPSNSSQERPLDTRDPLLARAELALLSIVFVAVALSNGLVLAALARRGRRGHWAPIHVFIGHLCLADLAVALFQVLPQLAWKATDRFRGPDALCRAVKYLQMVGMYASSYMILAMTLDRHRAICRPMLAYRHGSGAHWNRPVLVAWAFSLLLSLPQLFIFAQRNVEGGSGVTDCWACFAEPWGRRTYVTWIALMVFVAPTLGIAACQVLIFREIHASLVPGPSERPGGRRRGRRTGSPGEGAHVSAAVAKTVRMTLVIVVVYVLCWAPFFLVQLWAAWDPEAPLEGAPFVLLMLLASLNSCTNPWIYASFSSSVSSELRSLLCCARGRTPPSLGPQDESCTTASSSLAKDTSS
Sequence of D1 dopaminergic (P21728 whole entry): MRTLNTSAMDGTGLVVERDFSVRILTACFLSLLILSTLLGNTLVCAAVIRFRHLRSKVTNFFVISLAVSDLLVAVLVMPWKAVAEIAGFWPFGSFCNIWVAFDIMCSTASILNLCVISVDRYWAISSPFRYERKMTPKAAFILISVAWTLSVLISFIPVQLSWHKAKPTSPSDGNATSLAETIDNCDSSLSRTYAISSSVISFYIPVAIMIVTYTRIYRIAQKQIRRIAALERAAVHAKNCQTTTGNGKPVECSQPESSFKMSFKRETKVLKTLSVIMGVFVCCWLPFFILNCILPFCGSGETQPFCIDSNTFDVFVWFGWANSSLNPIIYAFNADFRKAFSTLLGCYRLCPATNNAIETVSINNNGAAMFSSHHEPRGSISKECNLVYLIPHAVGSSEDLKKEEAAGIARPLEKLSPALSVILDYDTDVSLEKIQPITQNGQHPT
Sequence of alpha1a adrenergic (P35348 whole entry): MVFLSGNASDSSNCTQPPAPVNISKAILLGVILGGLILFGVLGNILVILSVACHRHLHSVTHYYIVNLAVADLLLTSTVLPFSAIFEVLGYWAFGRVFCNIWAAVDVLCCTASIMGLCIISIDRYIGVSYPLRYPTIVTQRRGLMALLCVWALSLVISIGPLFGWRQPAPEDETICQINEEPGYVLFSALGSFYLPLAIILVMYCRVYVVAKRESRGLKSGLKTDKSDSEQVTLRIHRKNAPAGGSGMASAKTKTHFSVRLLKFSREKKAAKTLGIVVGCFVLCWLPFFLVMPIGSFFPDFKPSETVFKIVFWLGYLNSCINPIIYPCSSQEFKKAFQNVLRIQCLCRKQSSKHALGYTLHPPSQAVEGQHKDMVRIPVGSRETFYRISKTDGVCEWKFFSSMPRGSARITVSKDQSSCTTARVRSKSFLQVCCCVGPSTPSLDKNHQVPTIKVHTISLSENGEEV
Sequence of H1 histaminergic (P35367 whole entry): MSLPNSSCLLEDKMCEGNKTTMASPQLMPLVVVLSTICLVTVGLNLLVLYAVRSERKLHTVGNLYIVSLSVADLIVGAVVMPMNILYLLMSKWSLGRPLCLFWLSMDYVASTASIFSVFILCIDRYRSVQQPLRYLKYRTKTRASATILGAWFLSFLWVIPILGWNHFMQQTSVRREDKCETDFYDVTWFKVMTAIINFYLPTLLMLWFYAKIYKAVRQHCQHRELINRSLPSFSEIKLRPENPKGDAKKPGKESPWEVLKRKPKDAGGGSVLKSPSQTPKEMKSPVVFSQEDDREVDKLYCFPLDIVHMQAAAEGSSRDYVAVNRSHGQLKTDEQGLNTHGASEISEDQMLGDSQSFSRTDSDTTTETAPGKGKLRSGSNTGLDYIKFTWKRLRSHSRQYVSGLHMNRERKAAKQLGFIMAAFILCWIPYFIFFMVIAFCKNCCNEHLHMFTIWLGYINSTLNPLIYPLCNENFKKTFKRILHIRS
Sequence of beta1 adrenergic (P08588 whole entry): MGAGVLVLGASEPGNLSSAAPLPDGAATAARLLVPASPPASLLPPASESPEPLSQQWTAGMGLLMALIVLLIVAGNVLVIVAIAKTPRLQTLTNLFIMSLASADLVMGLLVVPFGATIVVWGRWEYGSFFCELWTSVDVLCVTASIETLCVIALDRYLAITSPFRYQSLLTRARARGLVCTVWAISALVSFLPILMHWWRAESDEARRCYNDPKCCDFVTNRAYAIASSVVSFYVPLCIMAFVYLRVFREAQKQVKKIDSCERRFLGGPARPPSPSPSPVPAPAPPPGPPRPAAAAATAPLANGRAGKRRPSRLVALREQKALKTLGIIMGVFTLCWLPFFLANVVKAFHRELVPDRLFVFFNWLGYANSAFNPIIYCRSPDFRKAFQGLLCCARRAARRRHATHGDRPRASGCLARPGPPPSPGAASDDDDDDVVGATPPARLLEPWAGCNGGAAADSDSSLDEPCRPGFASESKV

| Compound | 5-HT6 binding affinity compared with Serotonin (in words) [1] | IC50 [1] [nM] | Ki [1] [nM] | affinity for rat recombinant 5-HT6 receptor (in words) [1] | IC50 [2] [nM] | Ki [2] [µM] | affinity for human recombinant 5-HT7 receptor (in words) [2] | Ki [3] [nM] | Ki [4] [nM] | Ki [5] [nM] | Ki [6] [nM] | Ki [7] [nM] | Ki [8] [nM] | Ki [9] [nM] | Ki [10] [nM] | Ki [11] [nM] | Ki [12] [nM] | Ki [13] [nM] | Ki [14] [nM] | Ki [15] [nM] | further results |
| --- | --- | --- | --- | --- | --- | --- | --- | --- | --- | --- | --- | --- | --- | --- | --- | --- | --- | --- | --- | --- | --- |
| Cc1[nH]c2ccc(Cl)cc2c1CCN(C)C [ST 1936, 5-chloro-2-methyl-N,N-dimethyltryptamine] | greater than that observed for Serotonin | 62 | 31 | high affinity | 527 | 0.168 | moderate | > 1000 | > 1000 | > 1000 | > 1000 | > 1000 | > 1000 | > 1000 | > 1000 | ≥ 1000 | ≥ 1000 | ≥ 1000 | ≥ 1000 | ≥ 1000 | Ki [16]: ≥ 1000 nM; Ki [17]: ≥ 1000 nM; Ki [18]: ≥ 1000 nM; Ki [19]: ≥ 1000 nM; Ki [20]: ≥ 1000 nM; Ki [21]: ≥ 1000 nM; Ki [22]: ≥ 1000 nM; Ki [23]: 53 nM; interaction capability for alpha1b receptors lower than for 5-HT6 receptor [23]: about 2 fold |
| CCc1[nH]c2ccc(Cl)cc2c1CCN(C)C [ST 2253, 5-Chloro-2-ethyl-N,N-dimethyltryptamine] | greater than that observed for Serotonin | 52 | 26 | high affinity | > 1000 | > 1 | negligible | > 1000 | > 1000 | 84 | > 1000 | > 1000 | > 1000 | > 1000 | > 1000 | ≥ 1000 | ≥ 1000 | ≥ 1000 | ≥ 1000 | ≥ 1000 | selectivity of binding for 5-HT6 receptor (in words) ([1]; over other serotonin sites and other neurotransmitter receptors): selective affinity for 5-HT6 receptor; Ki ([2]; read-out: Affinity (Ki) 5-HT7, Table 2, cell printed in μM): > 1 µM; Ki [16]: ≥ 1000 nM; Ki [17]: ≥ 1000 nM; Ki [18]: ≥ 1000 nM; Ki [19]: ≥ 1000 nM; Ki [20]: ≥ 1000 nM; Ki [21]: ≥ 1000 nM; Ki [22]: ≥ 1000 nM; Ki [23]: 69 nM; interaction capability for alpha1b receptors lower than for 5-HT6 receptor [23]: ~3 fold |
